{"source": "the supplement of paper PMC9663587", "key": {"[1]": {"compound": "CCCCOc1c(C(=O)c2c(F)cc(C)cc2F)c[nH]c2nncc1-2"}, "Luminespib/NVP-AUY922": {"compound": "CCNC(=O)c1noc(-c2cc(C(C)C)c(O)cc2O)c1-c1ccc(CN2CCOCC2)cc1 [Luminespib/NVP-AUY922]"}, "THZ-P1-2": {"compound": "CN(C)C/C=C/C(=O)NC1=CC=C(C=C1)C(=O)NC2=CC=CC(=C2)NC3=NC=NC(=C3)C4=CNC5=CC=CC=C54 [THZ-P1-2]"}, "BSJ-01-175": {"compound": "CN(C)C/C=C/C(=O)Nc1ccc(O[C@@H]2CCC[C@@H](Nc3ncc(Cl)c(-c4c[nH]c5ccccc45)n3)C2)cc1 [BSJ-01-175]"}, "Saracatinib/AZD0530": {"compound": "CN1CCN(CCOc2cc(OC3CCOCC3)c3c(Nc4c(Cl)ccc5c4OCO5)ncnc3c2)CC1 [Saracatinib/AZD0530]"}, "Ceritinib/LDK378": {"compound": "Cc1cc(Nc2ncc(Cl)c(Nc3ccccc3S(=O)(=O)C(C)C)n2)c(OC(C)C)cc1C1CCNCC1 [Ceritinib/LDK378]"}, "YKL-5-124": {"compound": "C=CC(=O)Nc1ccc(C(=O)Nc2[nH]nc3c2CN(C(=O)N[C@H](CN(C)C)c2ccccc2)C3(C)C)cc1 [YKL-5-124]", "experiment": "increase in dead-cell fraction, 72 h; higher = more death;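 also: breast cancer cell lines in 384-well plates, stained with Hoechst plus LIVE/DEAD far red dye and imaged, cells above an LDR intensity threshold counted dead, Hoechst-negative corpses included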"}, "BSJ-03-123": {"compound": "CC(=O)c1c(C)c2cnc(Nc3ccc(N4CCN(CCOCCOCCOCCNC(=O)COc5cccc6c5C(=O)N(C5CCC(=O)NC5=O)C6=O)CC4)cn3)nc2n(C2CCCC2)c1=O [BSJ-03-123]", "experiment": "increase in dead-cell fraction, 72 h; higher = more death"}, "[2]": {"compound": "CC(=O)c1c(C)c2cnc(Nc3ccc(N4CCNCC4)cn3)nc2n(C2CCCC2)c1=O", "experiment": "increase in dead-cell fraction, 72 h; higher = more death"}, "[3]": {"compound": "CCN1CCN(Cc2ccc(Nc3ncc(F)c(-c4cc(F)c5nc(C)n(C(C)C)c5c4)n3)nc2)CC1", "experiment": "increase in dead-cell fraction, 72 h; higher = more death"}, "Neratinib/HKI272": {"compound": "CCOc1cc2ncc(C#N)c(Nc3ccc(OCc4ccccn4)c(Cl)c3)c2cc1NC(=O)/C=C/CN(C)C [Neratinib/HKI272]", "experiment": "increase in dead-cell fraction, 72 h; higher = more death"}, "[4]": {"compound": "CCc1cnn2c(NCc3ccc[n+]([O-])c3)cc(N3CCCC[C@H]3CCO)nc12", "experiment": "increase in dead-cell fraction, 72 h; higher = more death"}, "LEE011/Ribociclib": {"compound": "CN(C)C(=O)c1cc2cnc(Nc3ccc(N4CCNCC4)cn3)nc2n1C1CCCC1 [LEE011/Ribociclib]", "experiment": "increase in dead-cell fraction, 72 h; higher = more death"}, "THZ531": {"compound": "CN(C)C/C=C/C(=O)Nc1ccc(C(=O)N2CCC[C@@H](Nc3ncc(Cl)c(-c4c[nH]c5ccccc45)n3)C2)cc1 [THZ531]", "experiment": "increase in dead-cell fraction, 72 h; higher = more death"}, "THZ1": {"compound": "CN(C)C/C=C/C(=O)Nc1ccc(C(=O)Nc2cccc(Nc3ncc(Cl)c(-c4c[nH]c5ccccc45)n3)c2)cc1 [THZ1]", "experiment": "increase in dead-cell fraction, 72 h; higher = more death"}, "Flavopiridol": {"compound": "CN1CC[C@H](c2c(O)cc(O)c3c(=O)cc(-c4ccccc4Cl)oc23)[C@H](O)C1 [Flavopiridol]", "experiment": "increase in dead-cell fraction, 72 h; higher = more death"}}}
{"cell line": "SUM44PE", "values": [{"measurement": "GR50, 72 h", "setting": "[1]", "result": "< 0.001", "unit": "µM"}, {"measurement": "GR50, 72 h", "setting": "Luminespib/NVP-AUY922", "result": 0.00453, "unit": "µM"}, {"measurement": "GR50, 72 h", "setting": "THZ-P1-2", "result": 0.196, "unit": "µM"}, {"measurement": "GR50, 72 h", "setting": "BSJ-01-175", "result": 0.0082, "unit": "µM"}, {"measurement": "GR50, 72 h", "setting": "Saracatinib/AZD0530", "result": 6.6, "unit": "µM"}, {"measurement": "GR50, 72 h", "setting": "Ceritinib/LDK378", "result": 2.56, "unit": "µM"}, {"measurement": "increase in dead-cell fraction", "setting": "YKL-5-124; 0.001 µM", "result": 0.376}, {"measurement": "increase in dead-cell fraction", "setting": "YKL-5-124; 0.003162 µM", "result": 0.0121}, {"measurement": "increase in dead-cell fraction", "setting": "YKL-5-124; 0.01 µM", "result": 0.0391}, {"measurement": "increase in dead-cell fraction", "setting": "YKL-5-124; 0.03162 µM", "result": 0.053}, {"measurement": "increase in dead-cell fraction", "setting": "YKL-5-124; 0.1 µM", "result": 0.0951}, {"measurement": "increase in dead-cell fraction", "setting": "YKL-5-124; 0.3162 µM", "result": 0.0965}, {"measurement": "increase in dead-cell fraction", "setting": "YKL-5-124; 1 µM", "result": 0.127}, {"measurement": "increase in dead-cell fraction", "setting": "YKL-5-124; 3.162 µM", "result": 0.447}, {"measurement": "increase in dead-cell fraction", "setting": "BSJ-03-123; 0.001 µM", "result": 0.0021}, {"measurement": "increase in dead-cell fraction", "setting": "BSJ-03-123; 0.003162 µM", "result": 0.0071}, {"measurement": "increase in dead-cell fraction", "setting": "BSJ-03-123; 0.01 µM", "result": 0.0014}, {"measurement": "increase in dead-cell fraction", "setting": "BSJ-03-123; 0.03162 µM", "result": 0.0121}, {"measurement": "increase in dead-cell fraction", "setting": "BSJ-03-123; 0.1 µM", "result": 0.0265}, {"measurement": "increase in dead-cell fraction", "setting": "BSJ-03-123; 0.3162 µM", "result": 0.0126}, {"measurement": "increase in dead-cell fraction", "setting": "BSJ-03-123; 1 µM", "result": 0.0666}, {"measurement": "increase in dead-cell fraction", "setting": "BSJ-03-123; 3.162 µM", "result": 0.115}, {"measurement": "increase in dead-cell fraction", "setting": "[2]; 0.0003162 µM", "result": -0.0301}, {"measurement": "increase in dead-cell fraction", "setting": "[2]; 0.001 µM", "result": 0.0185}, {"measurement": "increase in dead-cell fraction", "setting": "[2]; 0.003162 µM", "result": 0.0057}, {"measurement": "increase in dead-cell fraction", "setting": "[2]; 0.01 µM", "result": -0.0159}, {"measurement": "increase in dead-cell fraction", "setting": "[2]; 0.03162 µM", "result": 0.0328}, {"measurement": "increase in dead-cell fraction", "setting": "[2]; 0.1 µM", "result": 0.0351}, {"measurement": "increase in dead-cell fraction", "setting": "[2]; 0.3162 µM", "result": 0.0647}, {"measurement": "increase in dead-cell fraction", "setting": "[2]; 1 µM", "result": -0.0062}, {"measurement": "increase in dead-cell fraction", "setting": "[2]; 3.162 µM", "result": 0.0016}, {"measurement": "increase in dead-cell fraction", "setting": "[3]; 0.001 µM", "result": 0.0036}, {"measurement": "increase in dead-cell fraction", "setting": "[3]; 0.003162 µM", "result": -0.0095}, {"measurement": "increase in dead-cell fraction", "setting": "[3]; 0.01 µM", "result": 0.0221}, {"measurement": "increase in dead-cell fraction", "setting": "[3]; 0.03162 µM", "result": 0.0221}, {"measurement": "increase in dead-cell fraction", "setting": "[3]; 0.1 µM", "result": -0.017}, {"measurement": "increase in dead-cell fraction", "setting": "[3]; 0.3162 µM", "result": 0.0843}, {"measurement": "increase in dead-cell fraction", "setting": "[3]; 1 µM", "result": 0.0751}, {"measurement": "increase in dead-cell fraction", "setting": "[3]; 3.162 µM", "result": 0.0328}, {"measurement": "increase in dead-cell fraction", "setting": "[3]; 10 µM", "result": 0.697}, {"measurement": "increase in dead-cell fraction", "setting": "Neratinib/HKI272; 0.0003162 µM", "result": -0.0158}, {"measurement": "increase in dead-cell fraction", "setting": "Neratinib/HKI272; 0.001 µM", "result": -0.0227}, {"measurement": "increase in dead-cell fraction", "setting": "Neratinib/HKI272; 0.003162 µM", "result": -0.0156}, {"measurement": "increase in dead-cell fraction", "setting": "Neratinib/HKI272; 0.01 µM", "result": 0.029}, {"measurement": "increase in dead-cell fraction", "setting": "Neratinib/HKI272; 0.03162 µM", "result": 0.0991}, {"measurement": "increase in dead-cell fraction", "setting": "Neratinib/HKI272; 0.1 µM", "result": 0.118}, {"measurement": "increase in dead-cell fraction", "setting": "Neratinib/HKI272; 0.3162 µM", "result": 0.137}, {"measurement": "increase in dead-cell fraction", "setting": "Neratinib/HKI272; 1 µM", "result": 0.22}, {"measurement": "increase in dead-cell fraction", "setting": "Neratinib/HKI272; 3.162 µM", "result": 0.358}, {"measurement": "increase in dead-cell fraction", "setting": "[4]; 0.0001 µM", "result": 0.0041}, {"measurement": "increase in dead-cell fraction", "setting": "[4]; 0.0003162 µM", "result": -0.0148}, {"measurement": "increase in dead-cell fraction", "setting": "[4]; 0.001 µM", "result": 0.0007}, {"measurement": "increase in dead-cell fraction", "setting": "[4]; 0.003162 µM", "result": -0.0141}, {"measurement": "increase in dead-cell fraction", "setting": "[4]; 0.01 µM", "result": 0.102}, {"measurement": "increase in dead-cell fraction", "setting": "[4]; 0.03162 µM", "result": 0.894}, {"measurement": "increase in dead-cell fraction", "setting": "LEE011/Ribociclib; 0.001 µM", "result": 0.0007}, {"measurement": "increase in dead-cell fraction", "setting": "LEE011/Ribociclib; 0.003162 µM", "result": -0.0447}, {"measurement": "increase in dead-cell fraction", "setting": "LEE011/Ribociclib; 0.01 µM", "result": 0.0327}, {"measurement": "increase in dead-cell fraction", "setting": "LEE011/Ribociclib; 0.03162 µM", "result": -0.0402}, {"measurement": "increase in dead-cell fraction", "setting": "LEE011/Ribociclib; 0.1 µM", "result": 0.0001}, {"measurement": "increase in dead-cell fraction", "setting": "LEE011/Ribociclib; 0.3162 µM", "result": -0.0342}, {"measurement": "increase in dead-cell fraction", "setting": "LEE011/Ribociclib; 1 µM", "result": 0.0417}, {"measurement": "increase in dead-cell fraction", "setting": "LEE011/Ribociclib; 3.162 µM", "result": -0.0186}, {"measurement": "increase in dead-cell fraction", "setting": "LEE011/Ribociclib; 10 µM", "result": -0.0286}, {"measurement": "increase in dead-cell fraction", "setting": "THZ531; 0.0001 µM", "result": -0.0163}, {"measurement": "increase in dead-cell fraction", "setting": "THZ531; 0.0003162 µM", "result": -0.0027}, {"measurement": "increase in dead-cell fraction", "setting": "THZ531; 0.001 µM", "result": 0.0202}, {"measurement": "increase in dead-cell fraction", "setting": "THZ531; 0.003162 µM", "result": -0.008}, {"measurement": "increase in dead-cell fraction", "setting": "THZ531; 0.01 µM", "result": -0.0392}, {"measurement": "increase in dead-cell fraction", "setting": "THZ531; 0.03162 µM", "result": -0.0411}, {"measurement": "increase in dead-cell fraction", "setting": "THZ531; 0.1 µM", "result": 0.0916}, {"measurement": "increase in dead-cell fraction", "setting": "THZ1; 0.0001 µM", "result": 0.0181}, {"measurement": "increase in dead-cell fraction", "setting": "THZ1; 0.0003162 µM", "result": -0.0186}, {"measurement": "increase in dead-cell fraction", "setting": "THZ1; 0.001 µM", "result": 0.0262}, {"measurement": "increase in dead-cell fraction", "setting": "THZ1; 0.003162 µM", "result": -0.0493}, {"measurement": "increase in dead-cell fraction", "setting": "THZ1; 0.01 µM", "result": 0.0625}, {"measurement": "increase in dead-cell fraction", "setting": "THZ1; 1 µM", "result": 0.0767}, {"measurement": "increase in dead-cell fraction", "setting": "Flavopiridol; 0.0001 µM", "result": -0.0156}, {"measurement": "increase in dead-cell fraction", "setting": "Flavopiridol; 0.0003162 µM", "result": -0.0093}, {"measurement": "increase in dead-cell fraction", "setting": "Flavopiridol; 0.001 µM", "result": -0.0478}, {"measurement": "increase in dead-cell fraction", "setting": "Flavopiridol; 0.003162 µM", "result": -0.0522}, {"measurement": "increase in dead-cell fraction", "setting": "Flavopiridol; 0.01 µM", "result": 0.0491}, {"measurement": "increase in dead-cell fraction", "setting": "Flavopiridol; 0.03162 µM", "result": 0.0151}, {"measurement": "increase in dead-cell fraction", "setting": "Flavopiridol; 0.1 µM", "result": 0.263}, {"measurement": "increase in dead-cell fraction", "setting": "Flavopiridol; 0.3162 µM", "result": 0.457}]}
